Inconclusive results and toxic doses are left out.
System: L1210 leukemia ip in BDF1 mice, survival T/C
Assay: NCI In Vivo Anticancer Drug Screen. Data for tumor model L1210 Leukemia (intraperitoneal) in B6D2F1 (BDF1) mice
Details: endpoint: mean survival time, higher = longer survival
How it was run: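 Transplanted-tumor mice were given test agent; controls received vehicle only. Survival readings from the two groups were divided (treated over control).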

[1] = dose: 100.0 mg/kg/injection, schedule: Q04DX002 (ip), vehicle: Klucel (hydroxypropylcellulose) (HPC)
[2] = dose: 200.0 mg/kg/injection, schedule: Q04DX002 (ip), vehicle: Klucel (hydroxypropylcellulose) (HPC)
[3] = dose: 100.0 mg/kg/injection, schedule: Q04DX003 (ip), vehicle: Klucel (hydroxypropylcellulose) (HPC)
[4] = dose: 200.0 mg/kg/injection, schedule: Q04DX003 (ip), vehicle: Klucel (hydroxypropylcellulose) (HPC)
[5] = dose: 400.0 mg/kg/injection, schedule: Q04DX003 (ip), vehicle: Klucel (hydroxypropylcellulose) (HPC)

O=C(/C=C\c1ccccc1)OCc1ccccc1CN1C=CCC1
T/C [1]: 86 % of control
T/C [2]: 104 % of control
T/C (dose: 400.0 mg/kg/injection, schedule: Q04DX002 (ip), vehicle: Klucel (hydroxypropylcellulose) (HPC)): 86 % of control

O=NN(CCF)C(=O)Nc1c[nH]c(=O)[nH]c1=O
T/C (dose: 20.0 mg/kg/injection, schedule: Q01DX001 (ip), vehicle: carboxymethylcellulose (CMC)): 178 % of control

COc1ccc(C(O)c2c(CN(C)C)c3ccccc3n2C)cc1 (centres undefined)
T/C (dose: 100.0 mg/kg/injection, schedule: Q04DX002 (ip), vehicle: other): 106 % of control

COc1ccc(NC(=O)Oc2ccccc2C(N)=O)c(Cl)c1
T/C [1]: 96 % of control
T/C [2]: 104 % of control

CC1CCCC(NC(=O)NCCCl)C1 (centres undefined)
T/C [3]: 95 % of control
T/C [4]: 87 % of control
T/C [5]: 98 % of control

Cc1cc(C)c(C)c(NCCCS(=O)(=O)O)c1C
T/C [3]: 98 % of control
T/C [4]: 102 % of control
T/C [5]: 100 % of control

O=C1NC(=O)C(=Cc2ccc(N(CCCl)CCCl)cc2)C(=O)N1
T/C (dose: 100.0 mg/kg/injection, schedule: Q01DX Z (ip), vehicle: methylcellulose (MC)): 102 % of control
T/C (dose: 200.0 mg/kg/injection, schedule: Q01DX Z (ip), vehicle: methylcellulose (MC)): 121 % of control

CS(=O)(=O)c1nc2ccc([N+](=O)[O-])cc2s1
T/C (dose: 25.0 mg/kg/injection, schedule: Q04DX002 (ip), vehicle: saline): 107 % of control
T/C (dose: 50.0 mg/kg/injection, schedule: Q04DX002 (ip), vehicle: saline): 104 % of control
T/C (dose: 100.0 mg/kg/injection, schedule: Q04DX002 (ip), vehicle: saline): 100 % of control

O=C(NC(=O)c1ccc(Cl)cc1)Nc1ccc(Cl)cc1C(F)(F)F
T/C (dose: 50.0 mg/kg/injection, schedule: Q01DX009 (ip), vehicle: saline with Tween-80): 98 % of control
T/C (dose: 100.0 mg/kg/injection, schedule: Q01DX009 (ip), vehicle: saline with Tween-80): 103 % of control
T/C (dose: 200.0 mg/kg/injection, schedule: Q01DX009 (ip), vehicle: saline with Tween-80): 98 % of control

Cc1cc(C)n(-c2nn3nnnc3c3ccccc23)n1
T/C (dose: 62.5 mg/kg/injection, schedule: Q04DX003 (ip), vehicle: saline): 101 % of control
T/C (dose: 125.0 mg/kg/injection, schedule: Q04DX003 (ip), vehicle: saline): 95 % of control
T/C (dose: 250.0 mg/kg/injection, schedule: Q04DX003 (ip), vehicle: saline): 93 % of control
